The record followed here is article PMC6014988, “Precision therapeutic targeting of human cancer cell motility” (Nature Communications, 2018).

The test system of experiment [1] is human prostate, breast, colon, and lung cancer cells. Description: Single-cell migration assay. The format is cell-based. Conditions: 10 µM, 3 days. How it is done:
Human prostate metastatic cells (PC3, PC3-M), and HPV-transformed normal (1532NPTX, 1542NPTX) and primary cancer (1532CPTX, 1542CPTX) cells, were treated with 10 µM genistein (G), KBU2046 (46), or vehicle (CO), and after 3 days, cell invasion was measured. Values are mean ± SEM of a single experiment in replicates of N = 4, with similar findings in multiple separate experiments (also N = 4). c Single-cell migration. Cell migration was measured after treatment for 3 days with 10 µM KBU2046 or vehicle (control). Values are mean ± SEM of a single experiment in replicates of N = 24, with similar findings in a separate experiment (also N = 24). *Denotes Student’s t-test P value <0.05, compared to controls. d Human cord blood hematopoietic stem cell colony formation assay. Values are the mean ± SD number of total, CFU-GM, CFU-GEMM, or BFU-E colonies at 14 days after treatment with KBU2046, from a single experiment in replicates of N = 2. e Induction of estrogen-responsive genes. Values are the mean ± SD of a single experiment, with similar results seen in a separate experiment, both in replicates of N = 2 […]

The target of the next experiment is MKK4 (Homo sapiens, UniProt P45985). In words: MKK4 in vitro kinase assay. It counts as biochemical. The method, then:
MEK4/MKK4/MAP2K4 in vitro kinase assay was performed as described by us[45].
Supplementary Figure 9. […] (a) Depiction of […]
established MKK4 pathway regulating human PCa cell metastasis. […]
to MKK4, as measured by fluorescence-based thermal shift assay. Values are the mean±SD (of N=2 replicates) increase in melting temperature (ΔTm) of purified recombinant MKK4 induced by the indicated concentrations of KBU2046 or genistein. […]
in an in vitro kinase assay. The indicated concentrations of KBU2046 were added to recombinant activated MKK4, and its ability to phosphorylate kinase dead p38α MAPK (K53A) was measured by Western blot for total (p38 MAPK) and phosphorylated (pp38 MAPK) forms of […]
HSP27 in cells. PC3-M cells were pre-treated for 24 hours with 50 µM KBU2046 or genistein, as indicated, then with TGFβ, and Western blot performed. All findings are from a single experiment, with similar findings in identical separate experiments, repeated at least once. […]

Another experiment has as its system PC3-luc cells. Description: Intracardiac injection PC3-luc bone metastasis model. It counts as in vivo, mouse. From the text: Fig. 3 KBU2046 inhibits bone destruction. a Treatment schema. Athymic mice were given intracardiac (IC) injections of PC3-luc cells on day 0 under ultrasound guidance, and underwent weekly IVIS imaging starting 7 days post injection. Cohorts of N = 20 control, N = 20 pre (treatment from 3 days prior to IC injection through end of the experiment), N = 10 Pre7Stop (treatment from 3 days prior to IC injection through 7 days post IC injection), and N = 10 post-treatment (treatment from 3 days post IC injection through end of the experiment) mice were dosed with 80 mg/kg KBU2046 daily by oral gavage and mock-treated with vehicle all other times. Whole-body (b) and mandible (c) flux are depicted, as determined from weekly IVIS imaging. d At week 4 post injection (i.e., at the end of the experiment), CT scans were performed on control, pre-, and post-treatment cohorts, and mandibular destruction quantified. e Representative images of pre and control mice are depicted. Arrows denote areas of bone destruction in controls, and corresponding areas in the pre mouse. Student’s t-test (b, c) and Fisher’s exact test (d) P values between the denoted cohorts are shown
Prostate cancer: intracardiac (IC) injection: IC injection of 4.0 × 10^5 PC3-Luc cells into male 6–8 week old athymic mice with IVIS imaging was performed as described, and was done so under ultrasound guidance (Supplementary Fig. 9). Mice were treated pre- and/or post-IC injection, as indicated. The pretreatment cohort emulates a metastasis naive model wherein cell motility is required in order for cells to invade into a distant organ, in this case, the jaw bone, for which this model is widely used. If KBU2046 were inhibiting cell motility, then in this model it would act to inhibit metastasis formation. In contrast, with the post-implantation cohort, cells have already completed invasion into the jaw bone, and distant metastasis have been established. […] IVIS imaging was performed 30 min after IC injection to confirm systemic distribution of cells, and thereafter weekly for 4 weeks starting 7 days post injection, allowing real-time tracking of metastasis development and growth. Computed tomograpgy (CT) (Inveon, Seimens) radiographic imaging was performed on some mice, as indicated, and resultant images analyzed in a blinded fashion using Inveon Research Workplace 4.2 visualization/analysis software and ImageJ. […] Experimental groups were randomly assigned to cages prior to the initiation of the study. CT images were analyzed in a blinded fashion to determine total bone loss using both the Invenon Research Workplace 4.2 visualization/analysis software and ImageJ. Specifically, to asses bone loss in an unbiased manner, an operator randomly loaded images into the system and blocked out identifying information prior to analysis by two separate blinded individuals.

In experiment [2] the test system is human breast cancer LM2-4H2N cells. In words: Breast cancer orthotopic implantation and resection survival model. The format is in vivo, mouse. To be noted: 25 mg/kg oral gavage five times per week, post-surgery adjuvant setting. The method, then: Breast cancer: orthotopic implantation: Orthotopic implantation of 2 × 10^6 dTomato-LM2-4H2N cells in matrigel:PBS human breast cancer cells into 5–6 week old female SCID-Beige mice (Taconic), followed by resection of resultant primary tumor, provides a model wherein survival is dictated by metastatic burden, and was performed as described. KBU2046 treatment by oral gavage 5 days per week began 4 weeks after resection, with weekly IVIS imaging. Animals were excluded from the analysis if they died and/or met the criteria for euthanasia in the 7 day post-operative period. Experimental groups were randomly assigned based upon size of primary tumor before treatment, in and manner that ensured equal distribution of tumor sizes across treatment groups.

The mark [3] stands for this setting: pre-cohort, 80 mg/kg daily oral gavage.

MKK4, sequence (P45985 whole entry): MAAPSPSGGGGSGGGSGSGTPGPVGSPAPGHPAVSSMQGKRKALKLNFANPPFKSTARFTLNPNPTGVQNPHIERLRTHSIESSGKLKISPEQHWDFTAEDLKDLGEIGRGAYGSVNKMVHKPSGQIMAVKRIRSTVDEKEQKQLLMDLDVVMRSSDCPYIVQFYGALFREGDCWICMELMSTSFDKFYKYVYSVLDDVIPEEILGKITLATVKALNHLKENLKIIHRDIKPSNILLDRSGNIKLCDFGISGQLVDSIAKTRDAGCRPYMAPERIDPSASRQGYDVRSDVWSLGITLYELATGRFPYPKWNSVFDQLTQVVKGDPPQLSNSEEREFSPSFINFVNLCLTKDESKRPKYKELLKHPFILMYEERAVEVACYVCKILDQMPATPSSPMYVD

With `O=C1c2ccccc2OCC1c1ccc(F)cc1` (racemic) [KBU2046, (±)-3(4-fluorophenyl)chroman-4-one], the cell migration entry in experiment [1] is recorded as “inhibited the migration”. Besides, the “inhibition of MKK4 kinase activity” value at MKK4 is “nor inhibit its kinase activity”. The total body metastasis entry with PC3-luc cells (Pre7Stop cohort) is given as “total body metastasis is significantly decreased”. Moreover, the “metastasis to the total body and jaw” value with PC3-luc cells (post-cohort, treatment from 3 days post IC injection) is given as “do not differ from control mice”. In addition, in the experiment on PC3-luc cells (setting [3]), the “metastasis to the mandible” value was “decreased metastasis to the mandible” and the total metastatic burden entry is “significant decrease in total metastatic burden”. In addition, in the experiment with PC3-luc cells (pre-cohort, week 4), the “destruction of bone (mandible, CT)” value is reported as “decreased destruction of bone”. For the same molecule, the survival entry in experiment [2] is recorded as “significantly prolonged the survival”.
